Test results reported in patent publication US12227488B2, “Small molecule degraders of Helios and methods of use” (DANA-FARBER CANCER INSTITUTE, INC., priority 2018, dated 2025).

Assays:
[1] = target: T1, IKZF1 (Homo sapiens, UniProt Q13422); assay: Cellular degradation assay, eGFP-IKZF1Δ fusion with mCherry reporter in Flp-In 293 cells; assay type: cell-based; conditions: for IKZF1 GFP/RFP Relative Abundance: 5 h incubation, n=1
T1 construct: expressed in transfected cells; host or cells: Flp-In 293
Description: (§1) IKZF1Δ, IKZF2Δ, GSPT1 and SALL4 ZnF1-2 were subcloned into mammalian pcDNA5/FRT Vector (Ampicillin and Hygromycin B resistant) modified to contain MCS-eGFP-P2A-mCherry. […] Following 2-3 passage cycle, FACS (FACSAria™ II, BD) was used to enrich for cells expressing eGFP and mCherry. Cells stably expressing the IKZF1Δ, IKZF2Δ, GSPT1 or SALL4 Znf1-2 GFP fusions with mCherry reporter were seeded at 30-50% confluency in 384-well plates with 50 μL FluoroBrite™ DMEM media (Thermo Fisher Scientific, A18967) containing 10% FBS per well a day before compound treatment. Compound titrations were dispensed using a D300e Digital Dispenser (HP), normalized to 0.5% DMSO, and incubated with cells for 5 hours.
(§2) The resulting images were analyzed using CellProfiler™. A series of image analysis steps (‘image analysis pipeline’) was constructed. First, the red and green channels were aligned and cropped to target the middle of each well (to avoid analysis of heavily clumped cells at the edges), and a background illumination function was calculated for both red and green channels of each well individually and subtracted to correct for illumination variations across the 384-well plate from various sources of error. An additional step was then applied to the green channel to suppress the analysis of large auto fluorescent artifacts and enhance the analysis of cell specific fluorescence by way of selecting for objects under a given size, 30 A.U., and with a given shape, speckles. mCherry-positive cells were then identified in the red channel filtering for objects between 8-60 pixels in diameter and using intensity to distinguish between clumped objects. The green channel was then segmented into GFP positive and negative areas and objects were labeled as GFP positive if at least 40% of it overlapped with a GFP positive area. The fraction of GFP-positive cells/mCherry-positive cells in each well was then calculated, and the green and red images were rescaled for visualization.
(§3) The degradation assay was performed as described above. […] Degradation was measured after 5 h of compound treatment and the concentrations that lead to half degradation at 5 h (DC50,5 h) were calculated using the nonlinear fit variable slope model (GraphPad Software).

[2] = target: T2, CRBN and Helios (IKZF2) (Homo sapiens, UniProt Q96SW2+Q9UKS7); assay: TR-FRET dimerization assay (CRBN-IKZF2 ternary complex formation); assay type: binding; conditions: n=1
T2 construct: His (N); Strep (N)
Description: A focused library of imide analogs was synthesized and assessed for their ability to induce dimerization between CRBN and Helios in a time-resolved fluorescence energy transfer (TR-FRET) assay (FIG. 1A).
Prior to TR-FRET measurements being conducted, the reactions were incubated for 15 min at rt. […] The TR-FRET signal of each data point was extracted by calculating the 520/490 nm ratios. Data from single measurements (n=1), each calculated as an average of at least three technical replicates per well per experiment are presented in Table 1.
BODIPY-labeled CRBN in complex with Damage Specific DNA Binding Protein 1 (DDB1) harboring an internal deletion of the flexible BPB propeller (DDB1AB-CRBN) and in vitro biotinylated IKZF2 were treated with increasing concentrations of the indicated compounds in the presence of tracer amounts of Terbium-Streptavidin (Tb-SA). Compound-induced recruitment of IKZF2 to CRBN was quantified following the 520/490 TR-FRET ratio using a PHERAstar® plate reader (BMG) utilizing two synchronized PMTs to reduce background.

[3] = test system: IKZF2; assay: Cellular degradation assay, eGFP-IKZF2Δ fusion with mCherry reporter in Flp-In 293 cells; assay type: cell-based; conditions: for IKZF2 GFP/RFP Relative Abundance: 5 h incubation, n=1
Description: as §1, §2, §3

[4] = compound concentration 2.00E−05
[5] = compound concentration 2.00E−06
[6] = compound concentration 2.00E−07
[7] = compound concentration 6.6667E−05
[8] = compound concentration 6.6667E−06
[9] = compound concentration 6.6667E−07 (667 nM)
[10] = half degradation at 5 h (DC50,5 h), triplicate, 11 point dose response

T1 sequence (Q13422 83-213 isoform Q13422-7 limits assumed): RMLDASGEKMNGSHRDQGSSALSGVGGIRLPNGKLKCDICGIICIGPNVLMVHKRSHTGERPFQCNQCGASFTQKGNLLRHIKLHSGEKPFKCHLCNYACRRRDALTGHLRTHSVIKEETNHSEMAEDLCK
T1 sequence (Q96SW2 whole entry partner, the tested form may be a part): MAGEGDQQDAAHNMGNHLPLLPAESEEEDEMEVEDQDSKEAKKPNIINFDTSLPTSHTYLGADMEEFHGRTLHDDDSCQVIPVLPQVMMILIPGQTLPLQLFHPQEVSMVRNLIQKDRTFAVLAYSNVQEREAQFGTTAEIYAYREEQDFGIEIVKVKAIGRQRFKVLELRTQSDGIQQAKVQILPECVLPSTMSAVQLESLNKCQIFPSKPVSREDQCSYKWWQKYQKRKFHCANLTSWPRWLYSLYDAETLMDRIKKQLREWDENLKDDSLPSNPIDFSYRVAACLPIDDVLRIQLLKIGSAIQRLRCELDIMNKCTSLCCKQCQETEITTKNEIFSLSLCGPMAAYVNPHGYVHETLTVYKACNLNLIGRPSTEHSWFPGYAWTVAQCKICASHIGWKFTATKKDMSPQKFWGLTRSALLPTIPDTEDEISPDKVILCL
T1 sequence (Q16531 2-1140 partner limits assumed): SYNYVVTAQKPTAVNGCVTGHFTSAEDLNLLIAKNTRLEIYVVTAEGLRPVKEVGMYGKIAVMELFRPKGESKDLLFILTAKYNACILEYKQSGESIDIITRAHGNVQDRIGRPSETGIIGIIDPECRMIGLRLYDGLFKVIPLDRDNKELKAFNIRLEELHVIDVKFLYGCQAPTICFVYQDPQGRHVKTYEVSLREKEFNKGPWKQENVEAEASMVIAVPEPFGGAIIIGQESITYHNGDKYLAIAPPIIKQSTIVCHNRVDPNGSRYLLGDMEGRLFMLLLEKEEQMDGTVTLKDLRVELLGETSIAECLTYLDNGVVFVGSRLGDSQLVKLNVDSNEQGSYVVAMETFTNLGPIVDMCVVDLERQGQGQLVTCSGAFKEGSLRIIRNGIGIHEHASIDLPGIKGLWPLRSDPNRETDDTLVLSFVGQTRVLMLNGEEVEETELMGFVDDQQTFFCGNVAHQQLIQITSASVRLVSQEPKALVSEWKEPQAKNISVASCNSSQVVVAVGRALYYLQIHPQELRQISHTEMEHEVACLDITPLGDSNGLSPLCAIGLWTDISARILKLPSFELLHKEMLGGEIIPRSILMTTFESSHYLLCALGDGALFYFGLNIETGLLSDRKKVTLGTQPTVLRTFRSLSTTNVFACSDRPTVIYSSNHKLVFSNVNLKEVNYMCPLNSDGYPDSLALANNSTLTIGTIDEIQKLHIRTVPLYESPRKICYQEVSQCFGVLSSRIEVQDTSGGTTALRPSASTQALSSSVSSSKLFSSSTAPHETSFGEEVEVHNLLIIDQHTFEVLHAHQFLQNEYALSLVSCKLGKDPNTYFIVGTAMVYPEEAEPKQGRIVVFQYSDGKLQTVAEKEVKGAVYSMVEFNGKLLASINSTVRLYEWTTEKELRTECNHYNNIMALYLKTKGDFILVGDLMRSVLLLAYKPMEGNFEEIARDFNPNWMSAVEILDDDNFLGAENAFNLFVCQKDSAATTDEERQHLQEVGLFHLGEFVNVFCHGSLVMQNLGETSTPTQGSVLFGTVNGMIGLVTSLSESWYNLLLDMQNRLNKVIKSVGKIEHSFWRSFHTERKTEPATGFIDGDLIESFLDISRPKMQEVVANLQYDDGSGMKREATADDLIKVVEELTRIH
T2 sequence (Q96SW2 whole entry): as the sequence (Q96SW2 whole entry partner, the tested form may be a part) above
T2 sequence (Q9UKS7 whole entry): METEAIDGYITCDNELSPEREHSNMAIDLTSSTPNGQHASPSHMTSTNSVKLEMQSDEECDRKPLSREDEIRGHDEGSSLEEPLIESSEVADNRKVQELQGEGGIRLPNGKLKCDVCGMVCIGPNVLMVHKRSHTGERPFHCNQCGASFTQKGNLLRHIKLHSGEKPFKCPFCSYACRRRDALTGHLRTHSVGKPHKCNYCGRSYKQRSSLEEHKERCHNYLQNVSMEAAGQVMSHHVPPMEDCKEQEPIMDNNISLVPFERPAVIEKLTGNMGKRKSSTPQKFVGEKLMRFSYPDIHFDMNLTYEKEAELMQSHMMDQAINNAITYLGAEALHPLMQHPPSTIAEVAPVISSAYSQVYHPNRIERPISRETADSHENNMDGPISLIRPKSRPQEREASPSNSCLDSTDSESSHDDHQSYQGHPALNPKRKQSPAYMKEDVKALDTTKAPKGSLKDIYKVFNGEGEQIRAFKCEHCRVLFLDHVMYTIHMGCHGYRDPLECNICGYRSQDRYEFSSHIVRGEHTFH

SMILES	IKZF1 GFP/RFP Relative Abundance [1, 4]	IKZF1 GFP/RFP Relative Abundance [1, 5]	IKZF1 GFP/RFP Relative Abundance [1, 6]	TR-FRET-IKZF2 (Normalized to CC-885) [2, 7]	TR-FRET-IKZF2 (Normalized to CC-885) [2, 8]	TR-FRET-IKZF2 (Normalized to CC-885) [2, 9]	IKZF2 GFP/RFP Relative Abundance [3, 4]	IKZF2 GFP/RFP Relative Abundance [3, 5]	IKZF2 GFP/RFP Relative Abundance [3, 6]	potency of IKZF1 degradation, in words ([1]; Table 3 summary)	DC50 [1, 10] [nM]	DC50 [3, 10] [nM]
Cc1ccc(NC(=O)NCc2cccc(OC3=CC(=O)N(C4CCC(=O)NC4=O)C3=O)c2)cc1Cl (stereo not drawn) [Compound 64, 1-(3-chloro-4-methylphenyl)-3-(3-((1-(2,6-dioxopiperidin-3-yl)-2,5-dioxo-2,5-dihydro-1H-pyrrol-3-yl)oxy)benzyl)urea]	1.154	1.077	1.122	0.030	0.025	0.021	1.087	1.038	1.061	–	–	–
Cc1ccc(NC(=O)N[C@H](C)c2cccc(NC3=CC(=O)N(C4CCC(=O)NC4=O)C3=O)c2)cc1Cl (stereo partly drawn) [Compound 70, 1-(3-chloro-4-methylphenyl)-3-((1R)-1-(3-((1-(2,6-dioxopiperidin-3-yl)-2,5-dioxo-2,5-dihydro-1H-pyrrol-3-yl)amino)phenyl)ethyl)urea]	0.076	0.080	0.103	1.531	1.409	1.271	0.021	0.057	0.031	–	–	–
Cc1ccc(NC(=O)NC(CC(=O)N(C)C)c2cccc(NC3=CC(=O)N(C4CCC(=O)NC4=O)C3=O)c2)cc1Cl (stereo not drawn) [Compound 76, 3-(3-(3-chloro-4-methylphenyl)ureido)-3-(3-((1-(2,6-dioxopiperidin-3-yl)-2,5-dioxo-2,5-dihydro-1H-pyrrol-3-yl)amino)phenyl)-N,N-dimethylpropanamide]	0.103	0.069	0.107	1.961	1.657	1.577	0.027	0.036	0.032	–	–	–
Cc1ccc(NC(=O)CNc2cccc(NC3=CC(=O)N(C4CCC(=O)NC4=O)C3=O)c2)cc1Cl (stereo not drawn) [Compound 78, N-(3-chloro-4-methylphenyl)-2-((3-((1-(2,6-dioxopiperidin-3-yl)-2,5-dioxo-2,5-dihydro-1H-pyrrol-3-yl)amino)phenyl)amino)acetamide]	–	–	–	–	–	–	–	–	–	most potent against IKZF1	1.9	2.2
O=C1CCC(N2C(=O)C=C(Nc3cccc(CNC(=O)NCc4ccccc4)c3)C2=O)C(=O)N1 (stereo not drawn) [Compound 81, 1-benzyl-3-(3-((1-(2,6-dioxopiperidin-3-yl)-2,5-dioxo-2,5-dihydro-1H-pyrrol-3-yl)amino)benzyl)urea]	0.063	0.056	0.094	0.703	0.585	0.519	0.587	0.660	0.737	–	–	–
Cc1cc(CNC(=O)NCc2cccc(NC3=CC(=O)N(C4CCC(=O)NC4=O)C3=O)c2)ccc1Cl (stereo not drawn) [Compound 82, 1-(4-chloro-3-methylbenzyl)-3-(3-((1-(2,6-dioxopiperidin-3-yl)-2,5-dioxo-2,5-dihydro-1H-pyrrol-3-yl)amino)benzyl)urea]	0.085	0.085	0.069	0.999	0.975	0.838	0.158	0.220	0.293	–	–	–
Cc1ccc(NC(=O)NCc2cc(NC3=CC(=O)N(C4CCC(=O)NC4=O)C3=O)ccc2OC(=O)N(C)C)cc1Cl (stereo not drawn) [Compound 95, 2-((3-(3-chloro-4-methylphenyl)ureido)methyl)-4-((1-(2,6-dioxopiperidin-3-yl)-2,5-dioxo-2,5-dihydro-1H-pyrrol-3-yl)amino)phenyl Dimethylcarbamate]	0.944	0.904	0.960	0.124	0.109	0.094	1.070	1.058	1.029	–	–	–
O=C1CCC(N2C(=O)C=C(Nc3cccc(CCC(=O)Nc4ccc(C(F)(F)F)c(Cl)c4)c3)C2=O)C(=O)N1 (stereo not drawn) [Compound 129, N-(3-chloro-4-(trifluoromethyl)phenyl)-3-(3-((1-(2,6-dioxopiperidin-3-yl)-2,5-dioxo-2,5-dihydro-1H-pyrrol-3-yl)amino)phenyl)propanamide]	–	–	–	1.626	1.551	1.583	0.063	0.013	0.027	–	–	–
Cc1ccc(NC(=O)CC(C)c2cccc(NC3=CC(=O)N(C4CCC(=O)NC4=O)C3=O)c2)cc1Cl (stereo not drawn) [Compound 137]	–	–	–	1.665	1.677	1.665	0.023	0.009	0.011	–	–	–
CC(CC(=O)Nc1cccc(C(F)(F)F)c1)c1cccc(NC2=CC(=O)N(C3CCC(=O)NC3=O)C2=O)c1 (stereo not drawn) [Compound 140, 3-(3-((1-(2,6-dioxopiperidin-3-yl)-2,5-dioxo-2,5-dihydro-1H-pyrrol-3-yl)amino)phenyl)-N-(3-(trifluoromethyl)phenyl)butanamide]	–	–	–	2.291	1.72	1.626	0.174	0.017	0.013	–	–	–
